The values below come from ChEMBL document CHEMBL4715857, “Structure-based linker exploration: Discovery of 1-ethyl-1H-indole analogs as novel ATX inhibitors” (Bioorg Med Chem, 2020).

Some results are limits rather than exact numbers.

This assay has as its target Autotaxin (Homo sapiens, UniProt Q13822). In words: Inhibition of glycosylated human ATX using FS-3 as substrate preincubated for 45 mins followed by substrate addition and measured every 1 min for 30 mins by fluorescence microplate reader assay.
For orientation: IC50 means the concentration at which inhibition is half-maximal. Lower therefore signals greater potency. For the compound `CCn1cc(C(=O)O)c2cc(-c3nc(CN4CCN(CCO)CC4)cs3)ccc21`, the IC50 amounted to 410 nM.

Consider `CCn1cc(C(=O)N/N=C2\CCc3cc(Br)ccc32)c2cc(-c3nc(CN4CCOCC4)cs3)ccc21`, for which the IC50 was greater than 10000 nM. In turn, `CCn1cc(C(=O)O)c2cc(-c3nc(CN4CCCC4)cs3)ccc21` displayed an IC50 of 930 nM. The figure for `CCn1cc(C(=O)O)c2cc(-c3nc(CN4CCOCC4)cs3)ccc21` is 820 nM; for `CCn1cc(C(=O)N/N=C/c2ccc(F)c(F)c2)c2cc(-c3nc(CN4CCOCC4)cs3)ccc21` it is 3490 nM; for `CCn1cc(NC(=O)NCc2ccc(Cl)cc2)c2cc(-c3nc(CN4CCN(CCO)CC4)cs3)ccc21` it is 156 nM. The figure for `CCn1cc(C(=O)O)c2cc(-c3nc(CN(CO)CO)cs3)ccc21` is 710 nM. The figure for `CCn1cc(NC(=O)NCc2ccc(F)cc2)c2cc(NC(=O)c3ccc(CN4CCN(CCO)CC4)cc3)ccc21` is 101 nM. `CCn1cc(C(=O)N/N=C/c2c(O)ccc3ccccc23)c2cc(-c3nc(CN4CCOCC4)cs3)ccc21` returned a 50% inhibitory concentration (IC50) greater than 10000 nM. To `CCn1cc(NC(=O)NCc2ccc(F)cc2)c2cc(NC(=O)c3ccc(CN4CCC(O)CC4)cc3)ccc21` belongs 2.3 nM. The figure for `CCn1cc(NC(=O)NCc2ccc(F)cc2)c2cc(NC(=O)c3ccc(CN4CCOCC4)cc3)ccc21` is 110 nM; for `CCn1cc(C(=O)N/N=C/c2ccc(F)cc2Cl)c2cc(-c3nc(CN4CCOCC4)cs3)ccc21` it is 6370 nM; for `CCn1cc(C(=O)N/N=C/c2ccc(F)cc2F)c2cc(-c3nc(CN4CCOCC4)cs3)ccc21` it is 4050 nM. The figure for `CCn1cc(C(=O)N/N=C(\C)c2ccc(OC)cc2)c2cc(-c3nc(CN4CCOCC4)cs3)ccc21` is greater than 10000 nM.

`CCn1cc(C(=O)O)c2cc(-c3nc(CN4CCN(C)CC4)cs3)ccc21` displayed a 50% inhibitory concentration (IC50) of 1290 nM. This lies in the single-digit micromolar range. To `CCn1cc(C(=O)N/N=C2\CCc3cc(OC)c(OC)cc32)c2cc(-c3nc(CN4CCOCC4)cs3)ccc21` belongs 8270 nM; to `CCn1cc(NC(=O)NCc2ccc(F)cc2)c2cc(-c3nc(CN4CCOCC4)cs3)ccc21`, 252 nM. The figure for `CCn1cc(C(=O)N/N=C/c2coc3ccccc3c2=O)c2cc(-c3nc(CN4CCOCC4)cs3)ccc21` is 7240 nM; for `CCn1cc(NC(=O)NCc2ccc(F)cc2)c2cc(NC(=O)c3ccc(CN4CCCC4)cc3)ccc21` it is 280 nM. `CCn1cc(NC(=O)NCc2ccc(F)cc2)c2cc(NC(=O)c3ccc(CN4CCN(C)CC4)cc3)ccc21` returned an IC50 of 190 nM. To `CCn1cc(NC(=O)NCc2ccc(F)cc2)c2cc(-c3nc(CN4CCC(O)CC4)cs3)ccc21` belongs 313 nM. The figure for `CCn1cc(NC(=O)NCc2ccc(F)cc2)c2cc(NC(=O)c3ccc(CN4CCC(C)CC4)cc3)ccc21` is 370 nM; for `CCn1cc(C(=O)O)c2cc(-c3nc(CN4CCC[C@H]4CO)cs3)ccc21` it is 590 nM; for `CCn1cc(C(=O)N/N=C(\C)c2ccc(F)cc2F)c2cc(-c3nc(CN4CCOCC4)cs3)ccc21` it is 9230 nM.

In turn, `CCn1cc(NC(=O)NCc2ccc(Cl)cc2)c2cc(NC(=O)c3ccc(CN4CCOCC4)cc3)ccc21` returned an IC50 of 107 nM. To `CCn1cc(NC(=O)NCc2ccc(Cl)cc2)c2cc(NC(=O)c3ccc(CN4CCCC4)cc3)ccc21` belongs 351 nM; to `CCn1cc(C(=O)O)c2cc(-c3nc(CN4CCC(O)CC4)cs3)ccc21`, 680 nM; to `CCn1cc(C(=O)N/N=C/c2ccc(C(F)(F)F)cc2)c2cc(-c3nc(CN4CCOCC4)cs3)ccc21`, 6140 nM. To `CCn1cc(NC(=O)NCc2ccc(F)cc2)c2cc(NC(=O)c3ccc(CN4CCCCC4)cc3)ccc21` belongs 530 nM. The figure for `CCn1cc(NC(=O)NCc2ccc(Cl)cc2)c2cc(NC(=O)c3ccc(CN4CCC(O)CC4)cc3)ccc21` is 13.1 nM. Take `CCn1cc(NC(=O)NCc2ccc(Cl)cc2)c2cc(-c3nc(CN4CCN(C)CC4)cs3)ccc21`: it took 199 nM to reach half-maximal inhibition (IC50). Take `CCn1cc(NC(=O)NCc2ccc(F)cc2)c2cc(-c3nc(CN(CCO)CCO)cs3)ccc21`: half-maximal inhibition (IC50) was put at 234 nM.
